What was measured:
Format in all cases: in vivo
wild oat (Avena fatua) = experiment: Test B postemergence; details: scale 0 to 100 (0 no effect, 100 complete control)
How it was run: (§1)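 Visual rating, 0 (no effect) to 100 (complete control) versus controls, taken 13–15 days after treatment in greenhouse. Compounds formulated in non-phytotoxic solvent plus surfactant; pre: sprayed after seeding; post: plants at 1- to 4-leaf stage, 2–18 cm.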

[1] = system: blackgrass (Alopecurus myosuroides); experiment: Test B postemergence; details: scale 0 to 100 (0 no effect, 100 complete control)
How it was run: as §1

[2] = system: duck salad (Heteranthera limosa); experiment: Test B flooded paddy test; details: Flood, scale 0 to 100
How it was run: (§2)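 Visual injury scoring (0 = no effect, 100 = complete control) versus controls made 13 to 15 days after treatment in the greenhouse. Test species were grown in flooded paddy to the 2-leaf stage: rice, barnyardgrass, umbrella sedge, duck salad.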

rice (Oryza sativa) = experiment: Test B flooded paddy test; details: Flood, scale 0 to 100
How it was run: as §2

[3] = system: barnyardgrass (Echinochloa crus-galli); experiment: Test B flooded paddy test; details: Flood, scale 0 to 100
How it was run: as §2

[4] = system: umbrella sedge (Cyperus difformis); experiment: Test B flooded paddy test; details: Flood, scale 0 to 100
How it was run: as §2

[5] = system: velvetleaf (Abutilon theophrasti); experiment: Test B pre/postemergence; details: for Velvetleaf plant response rating: Postemergence; for Plant response rating, Velvetleaf: Preemergence
How it was run: as §1

[6] = system: wheat (Triticum aestivum); experiment: Test B pre/postemergence; details: for Wheat plant response rating: Postemergence; for Plant response rating, Wheat: Preemergence
How it was run: as §1

[7] = system: morningglory (Ipomoea coccinea); experiment: Test B pre/postemergence; details: for Morningglory plant response rating: Postemergence; for Plant response rating, Morningglory: Preemergence
How it was run: as §1

[8] = system: barnyardgrass (Echinochloa crus-galli); experiment: Test B pre/postemergence; details: for Barnyardgrass plant response rating: Postemergence, scale 0 to 100 (0 no effect, 100 complete control)
How it was run: as §1

[9] = system: Surinam grass (Brachiaria decumbens); experiment: Test B pre/postemergence; details: for Surinam Grass plant response rating: Postemergence; for Plant response rating, Surinam Grass: Preemergence
How it was run: as §1

[10] = system: pigweed (Amaranthus retroflexus); experiment: Test B pre/postemergence; details: for Pigweed plant response rating: Postemergence; for Plant response rating, Pigweed: Preemergence
How it was run: as §1

[11] = system: crabgrass (Digitaria sanguinalis); experiment: Test B pre/postemergence; details: for Crabgrass plant response rating: Postemergence; for Plant response rating, Crabgrass: Preemergence
How it was run: as §1

[12] = system: giant foxtail (Setaria faberii); experiment: Test B pre/postemergence; details: for Foxtail, Giant plant response rating: Postemergence; for Plant response rating, Foxtail, Giant: Preemergence
How it was run: as §1

[13] = system: lambsquarters (Chenopodium album); experiment: Test B pre/postemergence; details: for Lambsquarters plant response rating: Postemergence; for Plant response rating, Lambsquarters: Preemergence
How it was run: as §1

corn (Zea mays) = experiment: Test B pre/postemergence; details: for Corn plant response rating: Postemergence; for Plant response rating, Corn: Preemergence
How it was run: as §1

[14] = system: cocklebur (Xanthium strumarium); experiment: Test B pre/postemergence; details: for Cocklebur plant response rating: Postemergence; for Plant response rating, Cocklebur: Preemergence
How it was run: as §1

[15] = 62 g ai/ha, scale 0 to 100 (0 no effect, 100 complete control)
[16] = 125 g ai/ha, scale 0 to 100 (0 no effect, 100 complete control)
[17] = 62 g ai/ha, scale 0 to 100, 0 no effect, 100 complete control

SMILES: Nc1nc(-c2ccc(Br)cc2)nc(C(=O)O)c1Br [Compound 136]
- Oat, Wild plant response rating (wild oat (Avena fatua); 62 g ai/ha): 20
- Oat, Wild plant response rating (wild oat (Avena fatua); 125 g ai/ha): 50
- Blackgrass plant response rating ([1]; 62 g ai/ha): 70
- Blackgrass plant response rating ([1]; 125 g ai/ha): 70
- Plant response rating, Ducksalad ([2]; 125 g ai/ha): 90
- Plant response rating, Ducksalad ([2]; 500 g ai/ha): 90
- Plant response rating, Rice (rice (Oryza sativa); 125 g ai/ha): 0
- Plant response rating, Rice (rice (Oryza sativa); 500 g ai/ha): 40
- Plant response rating, Barnyardgrass ([3]; 125 g ai/ha): 0
- Plant response rating, Barnyardgrass ([3]; 500 g ai/ha): 20
- Plant response rating, Sedge, Umbrella ([4]; 125 g ai/ha): 90
- Plant response rating, Sedge, Umbrella ([4]; 500 g ai/ha): 90
- Velvetleaf plant response rating [5, 15]: 80
- Velvetleaf plant response rating [5, 16]: 90
- Plant response rating, Velvetleaf [5, 17]: 60
- Plant response rating, Velvetleaf [5, 16]: 80
- Wheat plant response rating [6, 15]: 20
- Wheat plant response rating [6, 16]: 60
- Plant response rating, Wheat [6, 17]: 50
- Plant response rating, Wheat [6, 16]: 70
- Morningglory plant response rating [7, 15]: 40
- Morningglory plant response rating [7, 16]: 100
- Plant response rating, Morningglory [7, 17]: 10
- Plant response rating, Morningglory [7, 16]: 40
- Barnyardgrass plant response rating ([8]; 62 g ai/ha): 70
- Barnyardgrass plant response rating ([8]; 125 g ai/ha): 90
- Plant response rating, Barnyardgrass ([8]; Preemergence, 62 g ai/ha, scale 0 to 100, 0 no effect, 100 complete control): 30
- Surinam Grass plant response rating [9, 15]: 70
- Surinam Grass plant response rating [9, 16]: 80
- Plant response rating, Surinam Grass [9, 17]: 10
- Plant response rating, Surinam Grass [9, 16]: 50
- Pigweed plant response rating [10, 15]: 90
- Pigweed plant response rating [10, 16]: 100
- Plant response rating, Pigweed [10, 17]: 80
- Plant response rating, Pigweed [10, 16]: 100
- Crabgrass plant response rating [11, 15]: 70
- Crabgrass plant response rating [11, 16]: 80
- Plant response rating, Crabgrass [11, 17]: 70
- Plant response rating, Crabgrass [11, 16]: 80
- Foxtail, Giant plant response rating [12, 15]: 60
- Foxtail, Giant plant response rating [12, 16]: 70
- Plant response rating, Foxtail, Giant [12, 17]: 10
- Plant response rating, Foxtail, Giant [12, 16]: 50
- Lambsquarters plant response rating [13, 15]: 100
- Lambsquarters plant response rating [13, 16]: 100
- Plant response rating, Lambsquarters [13, 17]: 90
- Plant response rating, Lambsquarters [13, 16]: 100
- Corn plant response rating (corn (Zea mays); [15]): 40
- Corn plant response rating (corn (Zea mays); [16]): 70
- Plant response rating, Corn (corn (Zea mays); [17]): 0
- Plant response rating, Corn (corn (Zea mays); [16]): 0
- Cocklebur plant response rating [14, 15]: 90
- Cocklebur plant response rating [14, 16]: 100
- Plant response rating, Cocklebur [14, 17]: 40
- Plant response rating, Cocklebur [14, 16]: 70

From patent US8802597B2, “Herbicidal pyrimidines” (E I du Pont de Nemours and Company, priority 2003, dated 2014)
